Patent publication US5281604A, “Angiotensin II receptor blocking 2,3,6-substituted quinazolinones” (American Cyanamid Company, priority 1993, dated 1994)
Where “and” joins values, the source holds several entries; their conditions need not be identical. Equal entries are not always repeated.

System: ANGIOTENSIN II (AII) VASOPRESSOR RESPONSE
Test: AII Challenge: blockade of the angiotensin II vasopressor response in conscious spontaneously hypertensive rats
Format: in vivo, rat (Male Okamoto-Aoki SHR)
Conditions: 3 mg/kg i.v.
Description: By administering a compound of this invention to a rat, and then challenging with angiotensin II, a blockage of the vasopressor response is realized.
Conscious Male Okamoto-Aoki SHR, 16-20 weeks old, weighing approximately 330 g are purchased from Charles River Labs (Wilmington, Mass.). Conscious rats are restrained in a supine position with elastic tape. The area at the base of the tail is locally anesthetized by subcutaneous infiltration with 2% procaine. The ventral caudal artery and vein are isolated, and a cannula made of polyethylene (PE) 10-20 tubing (fused together by heat) is passed into the lower abdominal aorta and vena cava, respectively. The cannula is secured, heparinized (1,000 I.U./ml), sealed and the wound is closed. The animals are placed in plastic restraining cages in an upright position. The cannula is attached to a Statham P23Db pressure transducer, and pulsatile blood pressure is recorded to 10-15 minutes with a Gould Brush recorder. (Chan et al., (Drug Development Res., 18:75-94, 1989).
Angiotensin II (human sequence, Sigma Chem. Co., St. Louis, Mo.) of 0.05 and 0.1 ug/kg i.v. is injected into all rats (predosing response). Then a test compound, vehicle or a known angiotensin II antagonist is administered i.v., i.p. or orally to each set of rats. The two doses of angiotensin II are given to each rat again at 30, 60, 90, 120, 180, 240 and 300 minutes post dosing the compound or vehicle. The vasopressor response of angiotensin II is measured for the increase in systolic blood pressure in mmHg. The percentage of antagonism or blockade of the vasopressor response of angiotensin II by a compound is calculated using the vasopressor response (increase in systolic blood pressure) of angiotensin II of each rat predosing the compound as 100%. A compound is considered active if at 30 mg/kg i.v. it antagonized at least 50% of the response.

[1] = AII 0.05 mcg/kg IV, 30 min post dose
[2] = AII 0.05 mcg/kg IV, 60 min post dose
[3] = AII 0.05 mcg/kg IV, 90 min post dose
[4] = AII 0.05 mcg/kg IV, 120 min post dose
[5] = AII 0.05 mcg/kg IV, 180 min post dose
[6] = AII 0.05 mcg/kg IV, 240 min post dose
[7] = AII 0.05 mcg/kg IV, 300 min post dose
[8] = AII 0.1 mcg/kg IV, 30 min post dose
[9] = AII 0.1 mcg/kg IV, 60 min post dose
[10] = AII 0.1 mcg/kg IV, 90 min post dose
[11] = AII 0.1 mcg/kg IV, 120 min post dose
[12] = AII 0.1 mcg/kg IV, 180 min post dose
[13] = AII 0.1 mcg/kg IV, 240 min post dose
[14] = AII 0.1 mcg/kg IV, 300 min post dose

SMILES: CCCCc1nc2ccc(C3CC4C(O3)ON3C4CCC3(C)C)cc2c(=O)n1Cc1ccc(-c2ccccc2-c2nnn[nH]2)cc1 (stereo not shown) [Example 14]
- % Inhibition [1]: 79%
- Average Change [1]: 7.5 mmHg
- Control Before AII (single rat) [1]: 225 mmHg and 240 mmHg
- Response After AII (single rat) [1]: 225 mmHg and 250 mmHg
- Response Change (single rat) [1]: 0 mmHg and 15 mmHg
- % Inhibition [2]: 64%
- Average Change [2]: 12.5 mmHg
- Control Before AII (single rat) [2]: 225 mmHg and 240 mmHg
- Response After AII (single rat) [2]: 235 mmHg and 255 mmHg
- Response Change (single rat) [2]: 10 mmHg and 15 mmHg
- % Inhibition [3]: 74%
- Average Change [3]: 9 mmHg
- Control Before AII (single rat) [3]: 225 mmHg and 237 mmHg
- Response After AII (single rat) [3]: 235 mmHg and 245 mmHg
- Response Change (single rat) [3]: 10 mmHg and 8 mmHg
- % Inhibition [4]: 76%
- Average Change [4]: 8.5 mmHg
- Control Before AII (single rat) [4]: 210 mmHg and 230 mmHg
- Response After AII (single rat) [4]: 215 mmHg and 242 mmHg
- Response Change (single rat) [4]: 5 mmHg and 12 mmHg
- % Inhibition [5]: 76%
- Average Change [5]: 8.5 mmHg
- Control Before AII (single rat) [5]: 215 mmHg and 230 mmHg
- Response After AII (single rat) [5]: 225 mmHg and 237 mmHg
- Response Change (single rat) [5]: 10 mmHg and 7 mmHg
- % Inhibition [6]: 71%
- Average Change [6]: 10 mmHg
- Control Before AII (single rat) [6]: 205 mmHg and 230 mmHg
- Response After AII (single rat) [6]: 215 mmHg and 240 mmHg
- Response Change (single rat) [6]: 10 mmHg
- % Inhibition [7]: 74%
- Average Change [7]: 9 mmHg
- Control Before AII (single rat) [7]: 220 mmHg and 235 mmHg
- Response After AII (single rat) [7]: 228 mmHg and 245 mmHg
- Response Change (single rat) [7]: 8 mmHg and 10 mmHg
- % Inhibition [8]: 56%
- Average Change [8]: 17.5 mmHg
- Control Before AII (single rat) [8]: 230 mmHg and 245 mmHg
- Response After AII (single rat) [8]: 240 mmHg and 270 mmHg
- Response Change (single rat) [8]: 10 mmHg and 25 mmHg
- % Inhibition [9]: 56%
- Average Change [9]: 17.5 mmHg
- Control Before AII (single rat) [9]: 215 mmHg and 245 mmHg
- Response After AII (single rat) [9]: 235 mmHg and 260 mmHg
- Response Change (single rat) [9]: 20 mmHg and 15 mmHg
- % Inhibition [10]: 60%
- Average Change [10]: 16 mmHg
- Control Before AII (single rat) [10]: 220 mmHg and 240 mmHg
- Response After AII (single rat) [10]: 235 mmHg and 257 mmHg
- Response Change (single rat) [10]: 15 mmHg and 17 mmHg
- % Inhibition [11]: 63%
- Average Change [11]: 15 mmHg
- Control Before AII (single rat) [11]: 215 mmHg and 230 mmHg
- Response After AII (single rat) [11]: 230 mmHg and 245 mmHg
- Response Change (single rat) [11]: 15 mmHg
- % Inhibition [12]: 69%
- Average Change [12]: 12.5 mmHg
- Control Before AII (single rat) [12]: 215 mmHg and 230 mmHg
- Response After AII (single rat) [12]: 225 mmHg and 245 mmHg
- Response Change (single rat) [12]: 10 mmHg and 15 mmHg
- % Inhibition [13]: 56%
- Average Change [13]: 17.5 mmHg
- Control Before AII (single rat) [13]: 215 mmHg and 225 mmHg
- Response After AII (single rat) [13]: 230 mmHg and 245 mmHg
- Response Change (single rat) [13]: 15 mmHg and 20 mmHg
- % Inhibition [14]: 46%
- Average Change [14]: 21.5 mmHg
- Control Before AII (single rat) [14]: 215 mmHg and 235 mmHg
- Response After AII (single rat) [14]: 233 mmHg and 260 mmHg
- Response Change (single rat) [14]: 18 mmHg and 25 mmHg
